Legend:
[1] = system: MiaPaca-2 (expressing KRAS G12C mutant); assay: Proliferation Assay (Cell Viability Assay); type: cell-based; conditions: Homo sapiens, MIA PaCa-2; read-out: Proliferation in MiaPaca-2: IC50
How it was run: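 MiaPaca-2 cells (KRAS G12C) were grown in DMEM-high glucose with 10% FBS, seeded at 2000–5000 cells/well and cultured overnight. Compounds were added at 10 μM final, or as serial dilutions for IC50, in 0.3% DMSO/10% FBS for 2–4 days at 37 °C, 5% CO2. Viability was measured with CellTiter 96 Aqueous One and % inhibition calculated.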

KRas G12C mutant = assay: Ras GTP Binding Domain Inhibition Assay (Ras Superfamily Assay); conditions: 20 μM compound; for KRas G12C mutant + SOS: % inh.: with SOS; for KRas G12C mutant: % inh.: without SOS
How it was run: (§1)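 Binding of 100 nM fluorescent GTP (Cy3 or Cy5, 45 min, room temperature) was read after washes from plate-captured His-tagged protein. Beforehand, compounds at 20 μM or in dilution series for IC50 sat 3 h on the protein in Tris buffer pH 7.4 or 7.0 with 1% DMSO, Sos GEF optionally added for the last hour.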

KRas wild type = assay: as above; conditions: 20 μM compound; for KRas wild type + SOS: % inh.: with SOS; for KRas wild type: % inh.: without SOS
How it was run: as §1

Rac-1 = molecular target: T1, Rac-1 (Homo sapiens, UniProt P63000); assay: as above; conditions: read-out: Rac-1: % inh.
T1 construct: made in house
How it was run: as §1

Row | SMILES | IC50 [1] | KRas G12C mutant + SOS: % inh. (KRas G12C mutant) | KRas G12C mutant: % inh. (KRas G12C mutant) | KRas wild type + SOS: % inh. (KRas wild type) | KRas wild type: % inh. (KRas wild type) | inhibition at 20 µM (Rac-1)
1 | Cc1c(-c2ccn(C(C)C)n2)cn2nc(-c3nccn3C)nc(Nc3nnco3)c12 [Compound 59, N-(6-(1-Isopropyl-1H-pyrazol-3-yl)-5-methyl-2-(1-methyl-1H-imidazol-2-yl)pyrrolo[2,1-f][1,2,4]triazin-4-yl)-1,3,4-oxadiazol-2-amine] | 150 to 500 nM | B (B = 26-49% inhibition) | C (C = 50-75% inhibition) | C (C = 50-75% inhibition) | C (C = 50-75% inhibition) | 76 to 100%
2 | Cc1c(-c2ccn(C(C)C)n2)cn2nc(-c3nccn3C)nc(Nc3ncco3)c12 [Compound 60, N-(6-(1-Isopropyl-1H-pyrazol-3-yl)-5-methyl-2-(1-methyl-1H-imidazol-2-yl)pyrrolo[2,1-f][1,2,4]triazin-4-yl)oxazol-2-amine] | > 1000 nM | 0 (0 = 0% inhibition) | A (A = 1-25% inhibition) | A (A = 1-25% inhibition) | A (A = 1-25% inhibition) | 1 to 25%
3 | Cc1c(-c2ccn(C(C)C)n2)cn2nc(-c3nccn3C)nc(Nc3ccn(C)n3)c12 [Compound 61, 6-(1-Isopropyl-1H-pyrazol-3-yl)-5-methyl-2-(1-methyl-1H-imidazol-2-yl)-N-(1-methyl-1H-pyrazol-3-yl)pyrrolo[2,1-f][1,2,4]triazin-4-amine] | 510 to 1000 nM | D (D = 76-100% inhibition) | D (D = 76-100% inhibition) | D (D = 76-100% inhibition) | D (D = 76-100% inhibition) | 76 to 100%
4 | Cc1c(-c2ccn(C(C)C)n2)cn2nc(-c3nccn3C)nc(Nc3cnccn3)c12 [Compound 62, 6-(1-Isopropyl-1H-pyrazol-3-yl)-5-methyl-2-(1-methyl-1H-imidazol-2-yl)-N-(pyrazin-2-yl)pyrrolo[2,1-f][1,2,4]triazin-4-amine] | < 150 nM | 0 (0 = 0% inhibition) | A (A = 1-25% inhibition) | 0 (0 = 0% inhibition) | A (A = 1-25% inhibition) | 50 to 75%
5 | COc1cc(Nc2nc(-c3nccn3C)nn3cc(-c4ccn(C)n4)c(C)c23)ncn1 [Compound 63, N-(6-Methoxypyrimidin-4-yl)-5-methyl-2-(1-methyl-1H-imidazol-2-yl)-6-(1-methyl-1H-pyrazol-3-yl)pyrrolo[2,1-f][1,2,4]triazin-4-amine] | < 150 nM | C (C = 50-75% inhibition) | D (D = 76-100% inhibition) | D (D = 76-100% inhibition) | D (D = 76-100% inhibition) | 76 to 100%
6 | CCn1ccc(-c2cn3nc(-c4nccn4C)nc(Nc4cc(OC)ncn4)c3c2C)n1 [Compound 64, 6-(1-Ethyl-1H-pyrazol-3-yl)-N-(6-methoxypyrimidin-4-yl)-5-methyl-2-(1-methyl-1H-imidazol-2-yl)pyrrolo[2,1-f][1,2,4]triazin-4-amine] | < 150 nM | C (C = 50-75% inhibition) | D (D = 76-100% inhibition) | D (D = 76-100% inhibition) | D (D = 76-100% inhibition) | 76 to 100%
7 | COc1cc(Nc2nc(-c3nccn3C)nn3cc(-c4cccc(OC)n4)c(C)c23)ncn1 [Compound 65, 6-(6-Methoxypyridin-2-yl)-N-(6-methoxypyrimidin-4-yl)-5-methyl-2-(1-methyl-1H-imidazol-2-yl)pyrrolo[2,1-f][1,2,4]triazin-4-amine] | < 150 nM | A (A = 1-25% inhibition) | C (C = 50-75% inhibition) | B (B = 26-49% inhibition) | C (C = 50-75% inhibition) | 76 to 100%
8 | COc1ccc(-c2cn3nc(-c4nccn4C)nc(Nc4cc(OC)ncn4)c3c2C)cn1 [Compound 66, 6-(6-Methoxypyridin-3-yl)-N-(6-methoxypyrimidin-4-yl)-5-methyl-2-(1-methyl-1H-imidazol-2-yl)pyrrolo[2,1-f][1,2,4]triazin-4-amine] | > 1000 nM | C (C = 50-75% inhibition) | D (D = 76-100% inhibition) | D (D = 76-100% inhibition) | D (D = 76-100% inhibition) | 76 to 100%
9 | Cc1c(-c2ccn(C(C)C)n2)cn2nc(-c3nccn3C)nc(Nc3nnc(C4CC4)o3)c12 [Compound 67, 5-Cyclopropyl-N-(6-(1-isopropyl-1H-pyrazol-3-yl)-5-methyl-2-(1-methyl-1H-imidazol-2-yl)pyrrolo[2,1-f][1,2,4]triazin-4-yl)-1,3,4-oxadiazol-2-amine] | > 1000 nM | B (B = 26-49% inhibition) | C (C = 50-75% inhibition) | C (C = 50-75% inhibition) | C (C = 50-75% inhibition) | 50 to 75%
10 | Cc1c(-c2ccn(C(C)C)n2)cn2nc(-c3nccn3C)nc(Nc3cc(C4CC4)n[nH]3)c12 [Compound 68, N-(3-Cyclopropyl-1H-pyrazol-5-yl)-6-(1-isopropyl-1H-pyrazol-3-yl)-5-methyl-2-(1-methyl-1H-imidazol-2-yl)pyrrolo[2,1-f][1,2,4]triazin-4-amine] | < 150 nM | D (D = 76-100% inhibition) | D (D = 76-100% inhibition) | D (D = 76-100% inhibition) | D (D = 76-100% inhibition) | 76 to 100%
11 | Cc1c(-c2ccn(C(C)C)n2)cn2nc(-c3nccn3C)nc(Nc3cc(C4CC4)no3)c12 [Compound 69, 3-Cyclopropyl-N-(6-(1-isopropyl-1H-pyrazol-3-yl)-5-methyl-2-(1-methyl-1H-imidazol-2-yl)pyrrolo[2,1-f][1,2,4]triazin-4-yl)isoxazol-5-amine] | > 1000 nM | 0 (0 = 0% inhibition) | A (A = 1-25% inhibition) | 0 (0 = 0% inhibition) | A (A = 1-25% inhibition) | 1 to 25%
12 | Cc1c(-c2ccn(C(C)C)n2)cn2nc(-c3nccn3C)nc(Nc3nc(C4CC4)no3)c12 [Compound 70, 3-Cyclopropyl-N-(6-(1-isopropyl-1H-pyrazol-3-yl)-5-methyl-2-(1-methyl-1H-imidazol-2-yl)pyrrolo[2,1-f][1,2,4]triazin-4-yl)-1,2,4-oxadiazol-5-amine] | > 1000 nM | 0 (0 = 0% inhibition) | A (A = 1-25% inhibition) | 0 (0 = 0% inhibition) | A (A = 1-25% inhibition) | 1 to 25%
13 | COc1ccc(Nc2nc(-c3nccn3C)nn3cc(-c4ccn(C(C)C)n4)c(C)c23)cn1 [Compound 71, 6-(1-Isopropyl-1H-pyrazol-3-yl)-N-(6-methoxypyridin-3-yl)-5-methyl-2-(1-methyl-1H-imidazol-2-yl)pyrrolo[2,1-f][1,2,4]triazin-4-amine] | > 1000 nM | A (A = 1-25% inhibition) | 0 (0 = 0% inhibition) | A (A = 1-25% inhibition) | 0 (0 = 0% inhibition) | 1 to 25%
14 | Cc1c(-c2ccn(C(C)C)n2)cn2nc(-c3nccn3C)nc(Nc3ccn(C(C)C)n3)c12 [Compound 72, N,6-bis(1-Isopropyl-1H-pyrazol-3-yl)-5-methyl-2-(1-methyl-1H-imidazol-2-yl)pyrrolo[2,1-f][1,2,4]triazin-4-amine] | > 1000 nM | C (C = 50-75% inhibition) | C (C = 50-75% inhibition) | C (C = 50-75% inhibition) | C (C = 50-75% inhibition) | 76 to 100%
15 | COc1cncnc1Nc1nc(-c2nccn2C)nn2cc(-c3ccn(C(C)C)n3)c(C)c12 [Compound 73, 6-(1-Isopropyl-1H-pyrazol-3-yl)-N-(5-methoxypyrimidin-4-yl)-5-methyl-2-(1-methyl-1H-imidazol-2-yl)pyrrolo[2,1-f][1,2,4]triazin-4-amine] | < 150 nM | B (B = 26-49% inhibition) | B (B = 26-49% inhibition) | B (B = 26-49% inhibition) | C (C = 50-75% inhibition) | 50 to 75%

From US12459951B2, “Compounds that interact with RAS superfamily proteins for treatment of cancers, inflammatory diseases, rasopathies, and fibrotic disease” (SHY Therapeutics, LLC, priority 2022, dated 2025)
